Reference: EP4585599A1, “NITROGEN-CONTAINING FUSED RING COMPOUND, INTERMEDIATE THEREOF, PREPARATION METHOD THEREFOR AND USE THEREOF” (Hangzhou Synrx Therapeutics Biomedical Technology Co., Ltd., priority 2022, dated 2024)
Like-named read-outs stand apart in the source and are kept apart here.

Tests used:
cells = conditions: Homo sapiens, DLD-1, 240 h
[1] = biological target: T1, helicase domain of the Pol θ protein (Homo sapiens, UniProt O75417); experiment: Biochemical Activity Assay (ADP Glo Assay) of Pol θ inhibitor, ATPase activity; conditions: ssDNA substrate, read-out: Biochemical assay IC50
T1 construct: The helicase domain of the Pol θ protein was purified from insect protein expression system; made in house; host or cells: insect protein expression system

[2] = read-out: Cell viability assay IC50 (nM), CTG assay, CellTiter Glo, read on Day 10, cell line not given
[3] = read-out: Cell viability assay IC50 (nM), CTG on Day 10, cell line not given (method: DLD1 and DLD1^-/- cells)
[4] = ADP-Glo assay, ATPase activity of Pol θ helicase domain
[5] = ADP-Glo, 60 min at room temperature

T1 sequence (O75417 102-554 limits assumed): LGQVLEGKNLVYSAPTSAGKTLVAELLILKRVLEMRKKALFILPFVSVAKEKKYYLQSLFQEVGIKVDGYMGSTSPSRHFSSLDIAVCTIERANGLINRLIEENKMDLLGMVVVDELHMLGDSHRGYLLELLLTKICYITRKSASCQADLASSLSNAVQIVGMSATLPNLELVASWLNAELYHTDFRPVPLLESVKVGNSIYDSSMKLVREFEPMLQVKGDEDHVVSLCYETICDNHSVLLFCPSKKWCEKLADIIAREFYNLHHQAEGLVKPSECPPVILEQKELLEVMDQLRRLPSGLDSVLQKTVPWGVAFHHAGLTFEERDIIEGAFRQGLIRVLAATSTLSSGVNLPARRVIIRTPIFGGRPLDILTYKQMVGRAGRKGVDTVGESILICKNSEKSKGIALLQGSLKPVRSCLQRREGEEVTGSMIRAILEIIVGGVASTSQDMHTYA

SMILES	IC50 (cells; [2]) [nM]	IC50 (cells; [3]) [nM]	IC50 [1, 4] [nM]	IC50 [1, 5] [nM]
COc1cnc(Cl)cc1-c1cc(C)ncc1C(=O)Nc1nc2cnc(N3CCC(O)CC3)cc2s1 [Example 51]	85.8	< 100	9.5	< 50
COc1cnc(Cl)cc1-c1cc(C)ncc1C(=O)Nc1nc2cnc(N3CCC(O)CC3)nc2s1 [Example 52]	20.7	< 100	2.62	< 50
COc1cnc(Cl)c(F)c1-c1cc(C)ncc1C(=O)Nc1nc2ccc(N3CCC(O)CC3)nc2s1 [Example 53]	9.38	< 100	1.96	< 50
COc1cnc(Cl)cc1-c1cc(C)ncc1C(=O)Nc1nc2ccc(C3=CCC(O)CC3)nc2[nH]1 (stereo not drawn) [Example 56, 2'-chloro-N-(5-(4-hydroxycyclohex-1-en-1-yl)-3H-imidazo[4,5-b]pyridin-2-yl)-5'-methox y-6-methyl-[4,4'-bipyridine]-3-carboxamide]	9620	> 1000	222	200 to 500
COc1cnc(Cl)cc1-c1cc(C)ncc1C(=O)Nc1nc2ncc(N3CCC(NC(C)=O)CC3)cc2s1 [Example 57, N-(6-(4-acetaminopiperidin-1-yl)thiazolo[4,5-b]pyridin-2-yl)-2'-chloro-5'-methoxy-6-me thyl-[4,4'-bipyridine]-3-carboxamide]	126	100 to 500	2.51	< 50
COc1cnc(Cl)cc1-c1cc(C)ncc1C(=O)Nc1nc2ncc(N3CCC(N)CC3)cc2s1 [Example 58]	3420	> 1000	11	< 50
COc1cnc(Cl)cc1-c1cc(C)ncc1C(=O)Nc1nc2ncc(N3CCC(O)CC3)cc2s1 [Example 59]	82.5	< 100	3.63	< 50
COc1cnc(Cl)cc1-c1cc(C)ncc1C(=O)Nc1nc2ncc(N3CCC(CO)C3)cc2s1 (stereo not drawn) [Example 60]	501	100 to 500	9.89	< 50
COc1cnc(Cl)cc1-c1cc(C)ncc1C(=O)Nc1nc2ncc(N3CC4CC(O)CC4C3)cc2s1 (stereo not drawn) [Example 61]	141	100 to 500	10.5	< 50
COc1cnc(Cl)cc1-c1cc(C)ncc1C(=O)Nc1nc2ncc(N3CC4CC3CC4O)cc2s1 (stereo not drawn) [Example 62]	631	100 to 500	16.9	< 50
COc1cnc(Cl)cc1-c1cc(C)ncc1C(=O)Nc1nc2ncc(NS(C)(=O)=O)cc2s1 [Example 63]	1710	> 1000	5.58	< 50
COc1cnc(Cl)cc1-c1cc(C)ncc1C(=O)Nc1nc2ncc(N3CCCC(O)CC3)cc2s1 (stereo not drawn) [Example 64]	681	500 to 1000	25.4	< 50
COc1cnc(Cl)cc1-c1cc(C)ncc1C(=O)Nc1nc2ncc(N3CCN(S(C)(=O)=O)CC3)cc2s1 [Example 65]	42.2	< 100	2.72	< 50
COc1cnc(Cl)cc1-c1cc(C)ncc1C(=O)Nc1nc2ncc(N3CCC(OC)CC3)cc2s1 [Example 66]	192	100 to 500	4.98	< 50
COc1cnc(Cl)cc1-c1cc(C)ncc1C(=O)Nc1nc2ncc(N3CCC(O)C(C)C3)cc2s1 (stereo not drawn) [Example 67]	46.4	< 100	6.18	< 50
COc1cnc(Cl)cc1-c1cc(C)ncc1C(=O)Nc1nc2ncc(N3CCC(NS(C)(=O)=O)CC3)cc2s1 [Example 68]	1120	> 1000	1.39	< 50
COc1cnc(Cl)cc1-c1cc(C)ncc1C(=O)Nc1nc2ncc(NC3CCN(S(C)(=O)=O)CC3)cc2s1 [Example 69]	92.6	< 100	4.28	< 50

SMILES	IC50 (cells; [2]) [nM]	IC50 (cells; [3]) [nM]	IC50 [1, 4] [nM]	IC50 [1, 5] [nM]
COc1cnc(Cl)cc1-c1cc(C)ncc1C(=O)Nc1nc2ncc(N3CCCC(O)C3)cc2s1 (stereo not drawn) [Example 71]	142	100 to 500	4.46	< 50
COc1cnc(Cl)cc1-c1cc(C)ncc1C(=O)Nc1nc2ncc(N3CCC(N(C)C)CC3)cc2s1 [Example 72]	190	100 to 500	3.15	< 50
CNC1CCN(c2cnc3nc(NC(=O)c4cnc(C)cc4-c4cc(Cl)ncc4OC)sc3c2)CC1 [Example 73]	209	100 to 500	1.67	< 50
COc1cnc(Cl)cc1-c1cc(C)ncc1C(=O)Nc1nc2ncc(N3CCC(NC(=O)C4(C)CC4)CC3)cc2s1 [Example 74]	383	100 to 500	6.44	< 50
COc1cnc(Cl)cc1-c1cc(C)ncc1C(=O)Nc1nc2ncc(-c3ccc(P(C)(C)=O)cc3)cc2s1 [Example 75, 2'-chloro-N-(6-(4-(dimethylphosphoryl)phenyl)thiazolo[4,5-b]pyridin-2-yl)-5'-methoxy-6-methyl-[4,4'-bipyridine]-3-carboxamide]	681	500 to 1000	2.51	< 50
COc1cnc(Cl)cc1-c1cc(C)ncc1C(=O)Nc1nc2ncc(-c3ccc(=O)[nH]c3)cc2s1 [Example 76]	–	> 1000	5.14	< 50
COc1cnc(Cl)cc1-c1cc(C)ncc1C(=O)Nc1nc2ncc(C3=CCC4(CC3)CC(O)C4)cc2s1 (stereo not drawn) [Example 77]	7.36	< 100	3.94	< 50
COc1cnc(Cl)cc1-c1cc(C)ncc1C(=O)Nc1nc2ncc(C3=CCC4(CC3)COC4)cc2s1 [Example 78]	8.21	< 100	2.89	< 50
COc1cnc(Cl)cc1-c1cc(C)ncc1C(=O)Nc1nc2ncc(C3=CC(O)CC3)cc2s1 (stereo not drawn) [Example 79]	92.6	< 100	3.35	< 50
COc1cnc(Cl)cc1-c1cc(C)ncc1C(=O)Nc1nc2ccc(-c3c(C)cnn3C)nc2s1 [Example 80]	30.3	< 100	9.12	< 50
COc1cnc(Cl)cc1-c1cc(C)ncc1C(=O)Nc1nc2ncc(-c3ccc(N4CCNCC4)cc3)cc2s1 [Example 81]	30.4	< 100	2.51	< 50
COc1cnc(Cl)cc1-c1cc(C)ncc1C(=O)Nc1nc2ccc(-c3ccncc3Cl)nc2s1 [Example 82]	104	100 to 500	6.71	< 50
COc1cnc(Cl)cc1-c1cc(C)ncc1C(=O)Nc1nc2ccc(-c3ccncc3C)nc2s1 [Example 83]	29.3	< 100	3.21	< 50
COc1cnc(Cl)cc1-c1cc(C)ncc1C(=O)Nc1nc2cc(F)c(C3=CCC(O)CC3)cc2s1 (stereo not drawn) [Example 84]	2.42	< 100	1.81	< 50
COc1cnc(Cl)cc1-c1cc(C)ncc1C(=O)Nc1nc2cc(F)c(-c3ccc(P(C)(C)=O)cc3)cc2s1 [Example 85]	44.7	< 100	1.81	< 50
COc1cnc(Cl)cc1-c1cc(C)ncc1C(=O)Nc1nc2ncc(C3=COCCO3)cc2s1 [Example 86]	23.3	< 100	2.67	< 50
COc1cnc(Cl)cc1-c1cc(C)ncc1C(=O)Nc1nc2ncc(C3(O)CCC4(CC3)COC4)cc2s1 [Example 88, 2'-chloro-N-(6-(7-hydroxy-2-oxaspiro[3.5]non-7-yl)thiazolo[4,5-b]pyridin-2-yl)-5'-methoxy-6-methyl-[4,4'-bipyridine]-3-carboxamide]	52.1	< 100	1.15	< 50
